Measured values: the Kinase Knowledgebase extract (Sharma et al. 2016)

How the values were obtained:
Test in all cases: Enzyme Assay
PIK3CB (Human) = PIK3CB (Human) (UniProt P42338)
PIK3CA (human) = PIK3CA (human) (UniProt P42336)
PIK3CD (Human) = PIK3CD (Human) (UniProt O00329)
PIK3CD (Human), sequence (O00329 whole entry, looked up): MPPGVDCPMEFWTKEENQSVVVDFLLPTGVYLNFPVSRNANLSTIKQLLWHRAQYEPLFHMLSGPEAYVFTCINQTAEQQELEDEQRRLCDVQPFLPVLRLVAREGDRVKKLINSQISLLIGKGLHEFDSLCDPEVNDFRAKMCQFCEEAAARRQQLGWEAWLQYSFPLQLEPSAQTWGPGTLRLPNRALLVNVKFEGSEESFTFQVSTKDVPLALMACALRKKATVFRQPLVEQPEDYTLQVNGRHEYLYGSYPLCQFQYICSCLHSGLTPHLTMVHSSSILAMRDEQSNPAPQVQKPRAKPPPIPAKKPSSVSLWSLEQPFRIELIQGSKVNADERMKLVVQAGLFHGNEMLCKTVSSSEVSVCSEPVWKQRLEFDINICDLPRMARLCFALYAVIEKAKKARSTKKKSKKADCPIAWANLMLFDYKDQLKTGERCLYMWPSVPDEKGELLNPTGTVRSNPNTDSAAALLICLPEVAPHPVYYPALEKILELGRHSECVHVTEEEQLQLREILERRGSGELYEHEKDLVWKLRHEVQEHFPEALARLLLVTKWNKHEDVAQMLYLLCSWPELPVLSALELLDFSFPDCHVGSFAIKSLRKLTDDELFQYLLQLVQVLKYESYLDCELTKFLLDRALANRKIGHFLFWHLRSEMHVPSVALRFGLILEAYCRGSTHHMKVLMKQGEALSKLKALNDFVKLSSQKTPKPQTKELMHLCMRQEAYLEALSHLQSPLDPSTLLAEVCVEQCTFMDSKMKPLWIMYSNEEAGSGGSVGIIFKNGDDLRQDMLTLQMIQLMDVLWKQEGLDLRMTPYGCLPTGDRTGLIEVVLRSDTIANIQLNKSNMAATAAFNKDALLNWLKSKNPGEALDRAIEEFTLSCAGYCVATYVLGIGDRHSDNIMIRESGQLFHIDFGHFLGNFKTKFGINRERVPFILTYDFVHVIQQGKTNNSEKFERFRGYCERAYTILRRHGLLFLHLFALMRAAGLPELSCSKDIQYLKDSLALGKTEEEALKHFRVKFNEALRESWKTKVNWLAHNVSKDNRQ

PIK3CA (human), sequence (P42336 whole entry, looked up): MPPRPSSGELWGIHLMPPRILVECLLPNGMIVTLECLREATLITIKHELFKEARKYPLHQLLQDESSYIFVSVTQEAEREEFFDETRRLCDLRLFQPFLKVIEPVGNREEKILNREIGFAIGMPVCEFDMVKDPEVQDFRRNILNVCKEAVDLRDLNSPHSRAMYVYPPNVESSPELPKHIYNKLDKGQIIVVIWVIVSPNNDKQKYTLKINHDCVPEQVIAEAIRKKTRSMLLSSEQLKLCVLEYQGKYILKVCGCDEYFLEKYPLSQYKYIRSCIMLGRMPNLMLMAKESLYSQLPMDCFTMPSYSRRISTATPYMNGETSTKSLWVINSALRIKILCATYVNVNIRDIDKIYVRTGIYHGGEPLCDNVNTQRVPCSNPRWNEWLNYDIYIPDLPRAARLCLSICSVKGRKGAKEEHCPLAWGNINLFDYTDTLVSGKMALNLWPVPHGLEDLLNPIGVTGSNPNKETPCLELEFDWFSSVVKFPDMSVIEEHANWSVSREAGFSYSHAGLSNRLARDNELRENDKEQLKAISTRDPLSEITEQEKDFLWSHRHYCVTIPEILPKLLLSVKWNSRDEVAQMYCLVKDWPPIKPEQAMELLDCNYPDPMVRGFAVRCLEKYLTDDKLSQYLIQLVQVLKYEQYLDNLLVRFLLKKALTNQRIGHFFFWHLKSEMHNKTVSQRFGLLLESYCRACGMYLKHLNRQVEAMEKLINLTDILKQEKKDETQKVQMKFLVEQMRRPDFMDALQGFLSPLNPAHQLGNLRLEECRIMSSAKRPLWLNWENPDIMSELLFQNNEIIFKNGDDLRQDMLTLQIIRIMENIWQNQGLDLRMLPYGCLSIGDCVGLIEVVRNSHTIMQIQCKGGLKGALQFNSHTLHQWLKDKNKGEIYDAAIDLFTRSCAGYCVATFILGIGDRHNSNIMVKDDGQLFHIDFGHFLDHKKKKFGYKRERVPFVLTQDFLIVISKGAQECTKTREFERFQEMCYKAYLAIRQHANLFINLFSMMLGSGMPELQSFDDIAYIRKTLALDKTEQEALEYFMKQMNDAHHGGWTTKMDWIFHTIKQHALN
PIK3CB (Human), sequence (P42338 whole entry, looked up): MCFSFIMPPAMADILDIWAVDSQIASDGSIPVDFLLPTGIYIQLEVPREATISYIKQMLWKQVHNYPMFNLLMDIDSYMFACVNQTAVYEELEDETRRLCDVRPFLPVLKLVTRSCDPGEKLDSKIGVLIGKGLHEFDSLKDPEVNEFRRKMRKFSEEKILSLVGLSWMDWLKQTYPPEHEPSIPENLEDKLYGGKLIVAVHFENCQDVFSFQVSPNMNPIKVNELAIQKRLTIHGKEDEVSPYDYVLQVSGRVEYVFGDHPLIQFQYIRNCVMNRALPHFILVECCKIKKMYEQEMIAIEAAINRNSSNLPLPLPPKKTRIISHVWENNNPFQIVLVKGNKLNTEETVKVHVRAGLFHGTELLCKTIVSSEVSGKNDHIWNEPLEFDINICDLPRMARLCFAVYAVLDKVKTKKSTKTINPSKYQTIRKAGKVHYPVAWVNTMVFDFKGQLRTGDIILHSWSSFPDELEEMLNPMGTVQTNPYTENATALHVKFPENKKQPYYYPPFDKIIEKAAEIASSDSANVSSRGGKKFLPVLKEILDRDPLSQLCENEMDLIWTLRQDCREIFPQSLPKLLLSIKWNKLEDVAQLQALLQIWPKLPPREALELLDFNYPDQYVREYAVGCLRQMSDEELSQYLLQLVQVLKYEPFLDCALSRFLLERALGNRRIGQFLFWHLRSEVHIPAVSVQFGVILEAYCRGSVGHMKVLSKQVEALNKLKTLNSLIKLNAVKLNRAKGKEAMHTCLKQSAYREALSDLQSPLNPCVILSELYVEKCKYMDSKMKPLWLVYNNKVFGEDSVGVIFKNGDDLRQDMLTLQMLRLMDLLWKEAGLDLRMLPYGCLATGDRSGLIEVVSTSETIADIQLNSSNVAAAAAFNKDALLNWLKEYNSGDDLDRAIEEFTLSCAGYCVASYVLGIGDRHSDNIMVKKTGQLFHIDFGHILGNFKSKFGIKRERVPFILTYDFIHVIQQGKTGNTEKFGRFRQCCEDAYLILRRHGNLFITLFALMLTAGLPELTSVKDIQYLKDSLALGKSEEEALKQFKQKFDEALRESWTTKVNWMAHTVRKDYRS

For CCn1c(Cn2nc(-c3ccc4nc(NC(C)=O)sc4c3)c3c(N)ncnc32)cc2cccc(C)c2c1=O, the IC50 (PIK3CB (Human)) was 0.1 to 1 µM.
In the case of Cc1cccc2cc(Cn3nc(-c4cnn(C)c4)c4c(N)ncnc43)n(-c3ccccc3F)c(=O)c12, the IC50 (PIK3CB (Human)) is reported as greater than 10 µM and the IC50 (PIK3CA (human)) is reported as greater than 10 µM.
For Cc1cccc2cc(Cn3nc(-c4cc(O)cc(F)c4)c4c(N)ncnc43)n(-c3ccccc3Cl)c(=O)c12, the IC50 (PIK3CB (Human)) was 0.1 to 1 µM.
With Cc1cccc2cc(Cn3nc(I)c4c(N)ncnc43)n(C3CCC3)c(=O)c12 the IC50 (PIK3CB (Human)) was greater than 10 µM and the IC50 (PIK3CA (human)) was greater than 10 µM.
Compound Cc1cccc2cc(Cn3nc(I)c4c(N)ncnc43)n(-c3ccccc3O)c(=O)c12 has an IC50 (PIK3CB (Human)) greater than 10 µM and an IC50 (PIK3CA (human)) greater than 10 µM.
Compound Cc1ccccc1-n1c(Cn2nc(C#C[C@@H](C)O)c3c(N)ncnc32)cc2cccc(C)c2c1=O has an IC50 (PIK3CB (Human)) greater than 10 µM and an IC50 (PIK3CA (human)) greater than 10 µM.
Work on Cc1cccc2cc([C@H](C)Nc3ncnc4[nH]nc(C(N)=O)c34)n(-c3ccccc3)c(=O)c12 yielded an IC50 (PIK3CB (Human)) of less than 0.1 µM and an IC50 (PIK3CD (Human)) of less than 0.1 µM.
CCC(Nc1ncnc2[nH]cnc12)c1cc2cccc(C)c2c(=O)n1-c1c(F)cccc1F (stereo not drawn) gave an IC50 (PIK3CB (Human)) greater than 10 µM.
With Cc1cccc2cc([C@H](C)Nc3cc(N)nc(N)n3)n(C3CC3)c(=O)c12 the IC50 (PIK3CB (Human)) was greater than 10 µM and the IC50 (PIK3CA (human)) was greater than 10 µM.
Cc1ccccc1-n1c(Cn2nc(-c3ccc(F)c(O)c3)c3c(N)ncnc32)cc2ccccc2c1=O was tested, and the IC50 (PIK3CB (Human)) was greater than 10 µM and the IC50 (PIK3CA (human)) was greater than 10 µM.
In the case of Cc1cccc2cc(Cn3nc(-c4cccc(F)c4)c4c(N)ncnc43)n(-c3ccccc3F)c(=O)c12, the IC50 (PIK3CB (Human)) is reported as greater than 10 µM and the IC50 (PIK3CA (human)) is reported as greater than 10 µM.
Cc1ccccc1-n1c(Cn2nc(CC#N)c3c(N)ncnc32)cc2cccc(C)c2c1=O was tested, and the IC50 (PIK3CB (Human)) was greater than 10 µM and the IC50 (PIK3CD (Human)) was less than 0.1 µM.
Cc1cccc2cc(Cn3nc(C#C[C@@H](C)O)c4c(N)ncnc43)n(-c3ccccc3O)c(=O)c12 was tested, and the IC50 (PIK3CB (Human)) was greater than 10 µM and the IC50 (PIK3CA (human)) was greater than 10 µM.
For CC(=O)Nc1nc2ccc(-c3nn(Cc4cc5cccc(C)c5c(=O)n4C4CCC4)c4ncnc(N)c34)cc2s1, the IC50 (PIK3CB (Human)) was 0.1 to 1 µM.
Compound Cc1ccccc1-n1c(Cn2nc(C#N)c3c(N)ncnc32)cc2cccc(C)c2c1=O has an IC50 (PIK3CB (Human)) greater than 10 µM and an IC50 (PIK3CA (human)) greater than 10 µM.
In the case of Cc1ccccc1-n1c(Cn2nc(-c3ccc(Cl)c(O)c3)c3c(N)ncnc32)cc2ccccc2c1=O, the IC50 (PIK3CB (Human)) is reported as greater than 10 µM and the IC50 (PIK3CA (human)) is reported as greater than 10 µM.
For Cc1cccc2cc(Cn3nc(C(C)C)c4c(N)ncnc43)n(-c3ccccc3)c(=O)c12, the IC50 (PIK3CB (Human)) was greater than 10 µM and the IC50 (PIK3CA (human)) was greater than 10 µM.
In the case of Cc1cccc2cc([C@H](C)Nc3ncc(C(F)(F)F)c(N)n3)n(-c3ccccc3)c(=O)c12, the IC50 (PIK3CB (Human)) is reported as greater than 10 µM and the IC50 (PIK3CA (human)) is reported as greater than 10 µM.
With Cc1cccc2cc([C@H](C)Nc3ncnc4[nH]cc(F)c34)n(-c3ccccc3)c(=O)c12 the IC50 (PIK3CB (Human)) was less than 0.1 µM and the IC50 (PIK3CD (Human)) was less than 0.1 µM.
CCc1ccccc1-n1c(Cn2nc(-c3cccc(O)c3)c3c(N)ncnc32)cc2cccc(C)c2c1=O showed an IC50 (PIK3CB (Human)) greater than 10 µM and an IC50 (PIK3CA (human)) greater than 10 µM.
Cc1cccc2cc(C(C)Nc3ncnc4[nH]cnc34)n(-c3ccc(F)cc3)c(=O)c12 (stereo not drawn) showed an IC50 (PIK3CB (Human)) of 0.1 to 1 µM and an IC50 (PIK3CD (Human)) of less than 0.1 µM.
With Cc1ccccc1-n1c(Cn2nc(CN3CCOCC3)c3c(N)ncnc32)cc2cccc(C)c2c1=O the IC50 (PIK3CB (Human)) was greater than 10 µM and the IC50 (PIK3CA (human)) was greater than 10 µM.
Cc1cccc2cc(Cn3nc(-c4ccc(F)c(O)c4)c4c(N)ncnc43)n(C3CCCC3)c(=O)c12 showed an IC50 (PIK3CB (Human)) greater than 10 µM and an IC50 (PIK3CA (human)) greater than 10 µM.
With Cc1ccccc1-n1c(Cn2nc(CCC(=O)N3CCOCC3)c3c(N)ncnc32)cc2cccc(C)c2c1=O the IC50 (PIK3CB (Human)) was greater than 10 µM and the IC50 (PIK3CA (human)) was greater than 10 µM.
With Cc1cccc2cc(Cn3nc(-c4cccc(O)c4)c4c(N)ncnc43)n(C(C)C)c(=O)c12 the IC50 (PIK3CB (Human)) was 0.1 to 1 µM and the IC50 (PIK3CA (human)) was greater than 10 µM.
Cc1cccc2cc([C@H](C)Nc3ncnc4[nH]cnc34)n(C3CC3)c(=O)c12 showed an IC50 (PIK3CB (Human)) of less than 0.1 µM and an IC50 (PIK3CD (Human)) of less than 0.1 µM.
For CCN(Cc1cc2cccc(C)c2c(=O)n1-c1ccccc1C)c1ncnc2[nH]cnc12, the IC50 (PIK3CB (Human)) was greater than 10 µM and the IC50 (PIK3CA (human)) was greater than 10 µM.
Compound Cc1cccc2cc(Cn3nc(-c4ccc(Cl)c(O)c4)c4c(N)ncnc43)n(-c3ccccc3F)c(=O)c12 has an IC50 (PIK3CB (Human)) greater than 10 µM and an IC50 (PIK3CA (human)) greater than 10 µM.
Cc1cccc2cc(Cn3nc(-c4cccc(O)c4)c4c(N)ncnc43)n(C3CC3)c(=O)c12 was tested, and the IC50 (PIK3CB (Human)) was 0.1 to 1 µM and the IC50 (PIK3CA (human)) was 0.1 to 1 µM.
For Cc1cccc2cc([C@H](C)Nc3ncnc4[nH]nc(C(N)=O)c34)n(C3CC3)c(=O)c12, the IC50 (PIK3CB (Human)) was less than 0.1 µM and the IC50 (PIK3CD (Human)) was less than 0.1 µM.
Work on Cc1cccc2cc([C@H](C)Nc3ncnc4[nH]ccc34)n(C3CC3)c(=O)c12 yielded an IC50 (PIK3CB (Human)) of less than 0.1 µM and an IC50 (PIK3CD (Human)) of less than 0.1 µM.
For CC(=O)Nc1nc2cc(-c3nn(Cc4cc5cccc(C)c5c(=O)n4-c4ccccc4C)c4ncnc(N)c34)ccc2o1, the IC50 (PIK3CB (Human)) was 0.1 to 1 µM and the IC50 (PIK3CD (Human)) was less than 0.1 µM.
Cc1ccccc1-n1c(CN(C)c2ncnc3[nH]cnc23)cc2cccc(C)c2c1=O gave an IC50 (PIK3CB (Human)) greater than 10 µM and an IC50 (PIK3CA (human)) greater than 10 µM.
Cc1cccc2cc(Cn3nc(I)c4c(N)ncnc43)n(C(C)C)c(=O)c12 showed an IC50 (PIK3CB (Human)) greater than 10 µM and an IC50 (PIK3CA (human)) greater than 10 µM.
Cc1cccc2cc(Cn3nc(C#N)c4c(N)ncnc43)n(-c3ccccc3F)c(=O)c12 was tested, and the IC50 (PIK3CB (Human)) was greater than 10 µM and the IC50 (PIK3CA (human)) was greater than 10 µM.
With Cc1cccc2cc(Cn3nc(-c4cccc(O)c4)c4c(N)ncnc43)n(-c3ccccc3)c(=O)c12 the IC50 (PIK3CB (Human)) was greater than 10 µM and the IC50 (PIK3CA (human)) was greater than 10 µM.
CC(=O)Nc1nc2ccc(-c3nn(Cc4cc5cccc(C)c5c(=O)n4-c4ccccc4)c4ncnc(N)c34)cc2[nH]1 was tested, and the IC50 (PIK3CB (Human)) was greater than 10 µM and the IC50 (PIK3CA (human)) was greater than 10 µM.
With Cc1ccccc1-n1c(Cn2nc(-c3ccc4nc(N)ncc4c3)c3c(N)ncnc32)cc2cccc(C)c2c1=O the IC50 (PIK3CB (Human)) was 0.1 to 1 µM.
With Cc1cccc2cc(C(C)Nc3ncnc4[nH]cnc34)n(C3CC3)c(=O)c12 (stereo not drawn) the IC50 (PIK3CB (Human)) was 0.1 to 1 µM and the IC50 (PIK3CD (Human)) was less than 0.1 µM.
With CC(=O)Nc1nc2cc(-c3nn(Cc4cc5cccc(C)c5c(=O)n4-c4ccccc4)c4ncnc(N)c34)ccc2o1 the IC50 (PIK3CB (Human)) was less than 0.1 µM and the IC50 (PIK3CD (Human)) was less than 0.1 µM.
In the case of Cc1ccccc1-n1c(Cn2nc(-c3ccc(F)c(O)c3)c3c(N)ncnc32)cc2cccc(F)c2c1=O, the IC50 (PIK3CB (Human)) is reported as greater than 10 µM and the IC50 (PIK3CA (human)) is reported as greater than 10 µM.
Cc1cccnc1-n1c(Cn2nc(-c3ccc(F)c(O)c3)c3c(N)ncnc32)cc2cccc(C)c2c1=O was tested, and the IC50 (PIK3CB (Human)) was greater than 10 µM and the IC50 (PIK3CA (human)) was greater than 10 µM.
With Cc1cccc2cc([C@H](C)Nc3ncnc4[nH]nc(C#N)c34)n(-c3ccccc3)c(=O)c12 the IC50 (PIK3CB (Human)) was less than 0.1 µM and the IC50 (PIK3CD (Human)) was less than 0.1 µM.
For Cc1cccc2cc(Cn3nc(C#C[C@@H](C)O)c4c(N)ncnc43)n(C3CCCCC3)c(=O)c12, the IC50 (PIK3CB (Human)) was greater than 10 µM and the IC50 (PIK3CA (human)) was greater than 10 µM.
Compound Cc1cccc2cc(Cn3nc(-c4cc(O)cc(F)c4)c4c(N)ncnc43)n(-c3ccccc3O)c(=O)c12 has an IC50 (PIK3CB (Human)) of 0.1 to 1 µM.
Compound Cc1cccc2cc(Cn3nc(-c4cccc(O)c4)c4c(N)ncnc43)n(-c3ccccc3C(C)C)c(=O)c12 has an IC50 (PIK3CB (Human)) of 0.1 to 1 µM and an IC50 (PIK3CA (human)) greater than 10 µM.
For Cc1cccc2cc(Cn3nc(-c4cn[nH]c4)c4c(N)ncnc43)n(-c3ccccc3C(C)C)c(=O)c12, the IC50 (PIK3CB (Human)) was 0.1 to 1 µM.
Cc1ccccc1-n1c(Cn2nc(-c3cccc(O)c3)c3c(N)ncnc32)cc2cccc(F)c2c1=O was tested, and the IC50 (PIK3CB (Human)) was greater than 10 µM and the IC50 (PIK3CA (human)) was greater than 10 µM.
Cc1ccccc1-n1c(Cn2nc(-c3ccc4ncnc(N)c4c3)c3c(N)ncnc32)cc2cccc(C)c2c1=O showed an IC50 (PIK3CB (Human)) greater than 10 µM.
Compound CCc1ccccc1-n1c(Cn2nc(-c3cc(O)cc(F)c3)c3c(N)ncnc32)cc2cccc(C)c2c1=O has an IC50 (PIK3CB (Human)) of 0.1 to 1 µM.
Compound CC(=O)Nc1nc2ccc(-c3nn(Cc4cc5cccc(C)c5c(=O)n4C)c4ncnc(N)c34)cc2s1 has an IC50 (PIK3CB (Human)) of 0.1 to 1 µM.
In the case of Cc1cccc2cc(Cn3nc(-c4cc(O)cc(F)c4)c4c(N)ncnc43)n(-c3ccccc3C(C)C)c(=O)c12, the IC50 (PIK3CB (Human)) is reported as 0.1 to 1 µM and the IC50 (PIK3CA (human)) is reported as 0.1 to 1 µM.
Work on Cc1ccccc1-n1c(Cn2nc(C#C[C@@H](C)O)c3c(N)ncnc32)cc2ccccc2c1=O yielded an IC50 (PIK3CA (human)) greater than 10 µM and an IC50 (PIK3CD (Human)) of 0.1 to 1 µM.
With Cc1ccccc1-n1c(Cn2nc(-c3ccc4oc(N)nc4c3)c3c(N)ncnc32)cc2cccc(C)c2c1=O the IC50 (PIK3CA (human)) was 0.1 to 1 µM and the IC50 (PIK3CD (Human)) was less than 0.1 µM.
